# Laboratory results taken from paper PMC12269599, “Analysis of chondroitin degradation by components of a Bacteroides caccae polysaccharide utilization locus” (The Journal of Biological Chemistry, 2025).
# Experiments:
# BcGH88 = molecular target: T1, BcGH88 (Bacteroides caccae, UniProt A0A413IVG2); assay: loss of absorbance at […] nm; type: biochemical; settings: only kcat/Km determined; 100 mM Tris pH 7.4, 37 °C
# T1 construct: residues 31-433, N-terminal His6 tag with thrombin site, E. coli
# T1 sequence (A0A413IVG2 31-433): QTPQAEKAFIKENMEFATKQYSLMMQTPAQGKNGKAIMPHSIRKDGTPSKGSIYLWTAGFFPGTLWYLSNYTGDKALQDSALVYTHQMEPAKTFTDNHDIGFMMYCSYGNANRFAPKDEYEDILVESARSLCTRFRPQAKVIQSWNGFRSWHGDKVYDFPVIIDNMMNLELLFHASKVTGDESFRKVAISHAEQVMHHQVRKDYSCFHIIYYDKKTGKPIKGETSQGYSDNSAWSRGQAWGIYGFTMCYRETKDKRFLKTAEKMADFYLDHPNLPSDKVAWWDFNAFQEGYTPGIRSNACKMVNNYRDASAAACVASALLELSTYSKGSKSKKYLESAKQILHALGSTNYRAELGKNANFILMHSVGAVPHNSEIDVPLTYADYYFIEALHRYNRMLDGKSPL
# BcGDH (GH154, BcGH154) = molecular target: T2, BcGDH (GH154, BcGH154) (Bacteroides caccae, UniProt I9ECR6); assay: absorbance at […] nm; LC-ESI-MS of product; type: biochemical; settings: dehydration to 4,5-unsaturated product; only kcat/Km determined; 100 mM Tris pH 7.4, 25 °C
# T2 construct: gene HMPREF1061_03832; residues 24-423, N-terminal His6-thrombin tag (cleaved for crystallography), E. coli, homotetramer; site completed by Y401 of a neighbouring monomer
# T2 sequence (I9ECR6 24-423): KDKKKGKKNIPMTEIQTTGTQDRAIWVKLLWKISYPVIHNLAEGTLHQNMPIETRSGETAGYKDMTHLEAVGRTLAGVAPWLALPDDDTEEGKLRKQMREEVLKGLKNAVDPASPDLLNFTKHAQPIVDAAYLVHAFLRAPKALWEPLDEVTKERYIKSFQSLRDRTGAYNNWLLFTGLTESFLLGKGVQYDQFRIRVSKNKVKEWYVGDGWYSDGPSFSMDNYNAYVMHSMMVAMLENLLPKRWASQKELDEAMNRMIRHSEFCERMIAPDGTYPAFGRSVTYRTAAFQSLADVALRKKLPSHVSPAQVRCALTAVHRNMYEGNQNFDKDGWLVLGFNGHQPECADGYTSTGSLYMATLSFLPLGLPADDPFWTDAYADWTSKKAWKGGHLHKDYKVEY
# [1] = molecular target: BcGDH (β-D-glucuronate dehydratase from Bacteroides caccae PUL25, previously classified as GH154) (Bacteroides caccae (strain ATCC 43185)); assay: crystal structure; unliganded BcGDH, spacegroup P2_(1), tetramer in the asymmetric unit; crystals at 18 °C from 26 g/L protein, 220 mM KCl, 24% PEG 3350; the same tetramer seen in four further unrefined crystal forms
# [2] = molecular target: BcGDH R285A mutant (Bacteroides caccae (strain ATCC 43185)); assay: crystal structure; BcGDH R285A soaked in 50 mM chondrosine, spacegroup P2_(1)2_(1)2_(1), tetramer in the asymmetric unit; 18 g/L protein, 0.25 M sodium iodide, 5 to 13% glycerol, 8 to 13% PEG 3350
compound,measurement,setting,value
CC(=O)N[C@H]1C(O)O[C@H](CO)[C@H](O)[C@@H]1O[C@@H]1OC(C(=O)O)=C[C@H](O)[C@H]1O (some centres unmarked) [CSΔ0S],loss of absorbance at 232 nm,BcGH88,BcGH88 had activity on CSΔ0S and CSΔ6S with kcat/Km values
CC(=O)N[C@H]1C(O)O[C@H](COS(=O)(=O)O)[C@H](O)[C@@H]1O[C@@H]1OC(C(=O)O)=C[C@H](O)[C@H]1O (some centres unmarked) [CSΔ6S],loss of absorbance at 232 nm,BcGH88,BcGH88 had activity on CSΔ0S and CSΔ6S with kcat/Km values
N[C@H]1C(O)O[C@H](CO)[C@H](O)[C@@H]1O[C@@H]1O[C@H](C(=O)O)[C@@H](O)[C@H](O)[C@H]1O (some centres unmarked) [chondrosine],absorbance at 232 nm; LC-ESI-MS of product,"BcGDH (GH154, BcGH154)","The absorbance increased in a time-dependent manner, with the rate of increase dependent upon the chondrosine"
"BcGDH (β-D-glucuronate dehydratase from Bacteroides caccae PUL25, previously classified as GH154) (enzyme)",stoichiometry N,[1],4
BcGDH R285A mutant (enzyme),stoichiometry N,[2],4
